# Measurements published in US8889878B2, “Haloalky-substituted amides as insecticides and acaricides” (Bayer CropScience AG, priority 2009, dated 2014).
# Experiments:
# [1] = tested on: mustard beetle (Phaedon cochleariae); assay: Phaedon test (PHAECO spray treatment), Example 16; type: in vivo; details: china cabbage leaf discs sprayed, after the desired time; for efficacy in % / pest or weed control at 500 g/ha: application rate 500 g/ha; for pest or weed control at 500 g/ha / pest or weed control at 100 g/ha: Phaedon cochleariae, foliar, read-out: efficacy in %; for pest or weed control at 100 g/ha: application rate 100 g/ha
# Description: Phaedon Test (PHAECO Spray Treatment)
# (§1) • Solvent: 78.0 parts by weight of acetone • 1.5 parts by weight of dimethylformamide • Emulsifier: 0.5 part by weight of alkylaryl polyglycol ether
# To prepare an appropriate active ingredient formulation, 1 part by weight of active ingredient is mixed with the stated amounts of solvent and emulsifier, and the concentrate is diluted with emulsifier-containing water to the desired concentration. […]
# After the desired time, the efficacy in % is determined. 100% means that all beetle larvae were killed; 0% means that no beetle larvae were killed.
# [2] = logP by HPLC on reverse-phase column (EEC Directive 79/831 Annex V.A8); type: physicochemical; details: for chromatographic logP: reverse-phase C18 HPLC column, pH 2.7, HPLC
# Description: The logP values reported in the above Tables and Preparation Examples were determined according to EEC Directive 79/831 Annex V.A8 by HPLC (High Performance Liquid Chromatography) on a reverse-phase column (C18). Temperature 43° C.
# [3] = tested on: armyworm (Spodoptera frugiperda); assay: Spodoptera frugiperda test (SPODFR spray treatment), Example 15; type: in vivo; details: application rate 500 g/ha, maize leaf discs sprayed, after 7 days; for pest or weed control at 500 g/ha: Spodoptera frugiperda, foliar, 168 h, read-out: efficacy in %
# Outline: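 Maize leaf discs sprayed with active ingredient in acetone/DMF with alkylaryl polyglycol ether emulsifier, diluted in water, then populated with caterpillars after drying. Efficacy in % after 7 days: 100% all caterpillars killed, 0% none.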
# Boophilus microplus [4] = assay: Boophilus microplus test (BOOPMI injection), Example 1; type: in vivo; details: application rate 20 μg/animal, injected into abdomen, after 7 days
# Description: Boophilus microplus Test (BOOPMI Injection) • Solvent: dimethyl sulphoxide To prepare an active ingredient formulation, 10 mg of active ingredient are mixed with 0.5 ml of solvent and the concentrate is diluted with water to the desired concentration. The active ingredient solution was injected into the abdomen (Boophilus microplus), and the animals were transferred to dishes and stored in a climate-controlled room. The efficacy was assessed by the number of fertile eggs laid. After 7 days, the efficacy in % is determined. 100% means that no tick laid fertile eggs.
# Boophilus microplus [5] = assay: Boophilus microplus test (BOOPMI injection), Example 11; type: in vivo; details: application rate 20 μg/animal, injected into abdomen, after 7 days
# Description: Boophilus microplus Test (BOOPMI Injection) • Solvent: dimethyl sulphoxide To prepare an appropriate active ingredient formulation, 10 mg of active ingredient are mixed with 0.5 ml of solvent and the concentrate is diluted with solvent to the desired concentration. The active ingredient solution is injected into the abdomen (Boophilus microplus), and the animals are transferred to dishes and stored in a climate-controlled room. The efficacy was assessed by the number of fertile eggs laid. After 7 days, the efficacy in % is determined. 100% means that none of the ticks has laid any fertile eggs.
# [6] = tested on: red spider mite (Tetranychus urticae); assay: Tetranychus test, OP-resistant (TETRUR spray treatment), Example 8; type: in vivo; details: application rate 20 g/ha, common bean leaf discs sprayed, after 6 days
# Description: Tetranychus Test, OP-resistant (TETRUR Spray Treatment)
# as §1
# To prepare an active ingredient formulation, 1 part by weight of active ingredient is mixed with the stated amounts of solvent and emulsifier, and the concentrate is diluted with emulsifier-containing water to the desired concentration.
# Leaf discs from the common bean (Phaseolus vulgaris) infested by all stages of the red spider mite (Tetranychus urticae) are sprayed with an active ingredient formulation of the desired concentration.
# After 6 days, the efficacy in % is determined. 100% means that all spider mites were killed; 0% means that no spider mites were killed.
# [7] = tested on: green peach aphid (Myzus persicae); assay: Myzus test (MYZUPE spray treatment), Example 17; type: in vivo; details: china cabbage leaf discs sprayed, after 6 days
# Description: Myzus Test (MYZUPE Spray Treatment)
# • Solvent: 78 parts by weight of acetone • 1.5 parts by weight of dimethylformamide • Emulsifier: 0.5 part by weight of alkylaryl polyglycol ether
# To prepare an appropriate active ingredient formulation, 1 part by weight of active ingredient is mixed with the stated amounts of solvent and emulsifier, and the concentrate is diluted with emulsifier-containing water to the desired concentration. Leaf discs from china cabbage (Brassica pekinensis) infested by all stages of the green peach aphid (Myzus persicae) are sprayed with an active ingredient formulation of the desired concentration.
# After 6 days, the efficacy in % is determined. 100% means that all aphids were killed; 0% means that no aphids were killed.
# [8] = tested on: mustard beetle (Phaedon cochleariae); assay: Phaedon test (PHAECO spray treatment), Example 7; type: in vivo; details: application rate 20 g/ha, china cabbage leaf discs sprayed, after 7 days
# Outline: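 Spray formulation (acetone/DMF with alkylaryl polyglycol ether, diluted in emulsifier-containing water) applied to Chinese cabbage leaf discs, which were dried and then stocked with mustard beetle larvae. Efficacy scored at 7 days as % larvae killed (100% all, 0% none).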
# [9] = C18 reverse phase, 43° C., acidic range pH 2.7, calibration with alkan-2-ones
# [10] = HPLC, C18 reverse phase, 43° C., acidic range pH 2.7, calibration with alkan-2-ones
"chromatographic logP [2, 9]",SMILES,logP ([2]; HPLC-MS),efficacy in % [6],efficacy in % ([7]; application rate 500 g/ha),efficacy in % [8],also measured
–,O=C(/C=C/c1ccc(NC(=O)C2CC2)cc1)NC(c1cc(Cl)cc(Cl)c1)C(F)(F)F (stereo not drawn) [Ia-1],HPLC-MS: logP = 3.77; mass,–,–,–,efficacy in % [1]: 83%
3.22,N#Cc1cc(/C=C/C(=O)NC(c2ccc(Cl)c(Cl)c2)C(F)(F)F)ccc1-n1cncn1 (stereo not drawn) [Ia-17],–,–,–,–,pest or weed control at 500 g/ha [3]: 100%; pest or weed control at 500 g/ha [1]: 100%
–,Cc1cc(/C=C/C(=O)NC(c2cccc(C(F)(F)F)c2)C(F)(F)F)ccc1C(=O)O (stereo not drawn) [Ia-27],HPLC-MS: logP = 3.14; mass,–,–,–,efficacy in % [1]: 83%
–,N#Cc1ccc(/C=C/C(=O)NC(c2cccc(C(F)(F)F)c2)C(F)(F)F)cc1Cl (stereo not drawn) [Ia-44],HPLC-MS: logP = 3.91; mass,–,–,–,efficacy in % (fertile eggs laid) (Boophilus microplus [4]): 100%; efficacy in % (fertile eggs laid) (Boophilus microplus [5]): 100%
–,COC(C)(C)NC(=O)c1ccc(/C=C/C(=O)NC(c2cccc(C(F)(F)F)c2)C(F)(F)F)cc1C(F)(F)F (stereo not drawn) [Ia-55],HPLC-MS: logP = 3.37; mass,100%,90%,–,efficacy in % [3]: 83%
–,O=C(/C=C/c1ccc(C(=O)NC2COC2)c(C(F)(F)F)c1)NC(c1cccc(C(F)(F)F)c1)C(F)(F)F (stereo not drawn) [Ia-59],HPLC MS: logP = 2.89; mass,100%,100%,100%,efficacy in % [3]: 83%
–,O=C(/C=C/c1ccc(C(=O)NC2CCC2)c(C(F)(F)F)c1)NC(c1cccc(C(F)(F)F)c1)C(F)(F)F (stereo not drawn) [Ia-61],HPLC-MS: logP = 3.58; mass,100%,80%,100%,–
–,CC(C)NC(=O)c1ccc(/C=C/C(=O)NC(c2cccc(C(F)(F)F)c2)C(F)(F)F)cc1C(F)(F)F (stereo not drawn) [Ia-62],HPLC-MS: logP = 3.41; mass,100%,80%,100%,–
–,C#CCNC(=O)c1ccc(/C=C/C(=O)NC(c2cccc(C(F)(F)F)c2)C(F)(F)F)cc1C(F)(F)F (stereo not drawn) [Ia-63],HPLC-MS: logP = 3.36; mass,80%,90%,100%,–
–,O=C(/C=C/c1ccc(C(=O)NC2CCOCC2)c(C(F)(F)F)c1)NC(c1cccc(C(F)(F)F)c1)C(F)(F)F (stereo not drawn) [Ia-69],HPLC-MS: logP = 3.12; mass,100%,90%,100%,–
–,O=C(/C=C/c1ccc(C(=O)NC2CCCC2C(F)(F)F)c(C(F)(F)F)c1)NC(c1cccc(C(F)(F)F)c1)C(F)(F)F (stereo not drawn) [Ia-77],HPLC-MS: logP = 3.93; mass,80%,–,–,efficacy in % (fertile eggs laid) (Boophilus microplus [4]): 100%; efficacy in % (fertile eggs laid) (Boophilus microplus [5]): 100%
–,O=C(/C=C/c1ccc(C(=O)NCC2CC2)c(C(F)(F)F)c1)NC(c1cccc(C(F)(F)F)c1)C(F)(F)F (stereo not drawn) [Ia-78],HPLC-MS: logP = 3.52; mass,90%,90%,100%,–
–,CC(F)(F)CNC(=O)c1ccc(/C=C/C(=O)NC(c2cccc(C(F)(F)F)c2)C(F)(F)F)cc1C(F)(F)F (stereo not drawn) [Ia-79],HPLC-MS: logP = 3.65; mass,90%,90%,100%,–
4.53,"O=C(/C=C/c1ccc(-c2noc(C3CC3)n2)c(C(F)(F)F)c1)NC(c1cccc(C(F)(F)F)c1)C(F)(F)F (stereo not drawn) [Ia-123, (2E)-3-[4-(5-Cyclopropyl-1,2,4-oxadiazol-3-yl)-3-(trifluoromethyl)phenyl]-N-{2,2,2-trifluoro-1-[3-(trifluoromethyl)phenyl]ethyl}acrylamide]",–,–,–,–,"pest or weed control at 0.02 mg (Boophilus microplus [5]; Rhipicephalus microplus, 168 h, read-out: efficacy in % (fertile eggs laid)): 100%; pest or weed control at 500 g/ha [3]: 100%; pest or weed control at 500 g/ha [1]: 100%"
2.93,"O=C(/C=C/c1ccc(C(=O)NC2CS(=O)(=O)C2)c(Cl)c1)NC(c1cccc(C(F)(F)F)c1)C(F)(F)F (stereo not drawn) [Ia-166, 2-Chloro-N-(1,1-dioxidothietan-3-yl)-4-[(1E)-3-oxo-3-({2,2,2-trifluoro-1-[3-(trifluoromethyl)phenyl]ethyl}amino)prop-1-en-1-yl]benzamide]",–,–,–,–,pest or weed control at 100 g/ha [1]: 100%
2.63,"O=C(/C=C/c1ccc(C(=O)NC2C[S+]([O-])C2)c(Cl)c1)NC(c1cccc(C(F)(F)F)c1)C(F)(F)F (stereo not drawn) [Ia-167, 2-chloro-N-(1-oxidothietan-3-yl)-4-[(1E)-3-oxo-3-({2,2,2-trifluoro-1-[3-(trifluoromethyl)phenyl]ethyl}amino)prop-1-en-1-yl]benzamide]",–,–,–,–,pest or weed control at 100 g/ha [1]: 100%; efficacy in % ([7]; application rate 100 g/ha): 80%
–,O=C(/C=C/c1ccc(C(=O)NC2CC2)c(C(F)(F)F)c1)NC(c1cncc(C(F)(F)F)c1)C(F)(F)F (stereo not drawn) [Ib-3],–,–,–,–,"efficacy in % [1]: 83%; logP [2, 10]: HPLC-MS: logP = 2.83; mass (m/z):"
3.63,"N#Cc1ccc2oc(C(=O)NC(c3cccc(C(F)(F)F)c3)C(F)(F)F)cc2c1 (stereo not drawn) [Ic-1, 5-Cyano-N-{2,2,2-trifluoro-1-[3-(trifluoromethyl)phenyl]ethyl}-1-benzofuran-2-carboxamide]",–,–,–,–,pest or weed control at 500 g/ha [3]: 100%; pest or weed control at 500 g/ha [1]: 100%
–,O=C(NC(c1cccc(C(F)(F)F)c1)C(F)(F)F)c1cc2cc(SC(F)(F)F)ccc2o1 (stereo not drawn) [Ic-2],–,–,–,–,"efficacy in % [1]: 83%; logP [2, 10]: HPLC-MS: logP = 4.94; mass"
2.8,"CC(=O)NCc1ccc2oc(C(=O)NC(c3cccc(C(F)(F)F)c3)C(F)(F)F)cc2c1 (stereo not drawn) [Ic-10, 5-(Acetamidomethyl)-N-{2,2,2-trifluoro-1-[3-(trifluoromethyl)phenyl]ethyl}-1-benzofuran-2-carboxamide]",–,–,–,–,pest or weed control at 500 g/ha [1]: 100%
–,N#Cc1ccc2[nH]c(C(=O)NC(c3cc(Cl)cc(C(F)(F)F)c3)C(F)(F)F)cc2c1 (stereo not drawn) [Ic-11],–,–,–,–,"efficacy in % [1]: 83%; logP [2, 10]: HPLC-MS: logP = 3.90; mass"
–,O=C(NC(c1cccc(C(F)(F)F)c1)C(F)(F)F)c1cc2cc(Cl)c(C(=O)NC3CC3)cc2[nH]1 (stereo not drawn) [Ic-18],–,80%,–,100%,"efficacy in % (fertile eggs laid) (Boophilus microplus [5]): 100%; logP [2, 10]: HPLC-MS: logP = 2.98; mass"
3.25,"O=C(NC1CC1)c1ccc2cc(C(=O)NC(c3cccc(C(F)(F)F)c3)C(F)(F)F)oc2c1 (stereo not drawn) [Ic-19, N^6-Cyclopropyl-N^2-{2,2,2-trifluoro-1-[3-(trifluoromethyl)phenyl]ethyl}-1-benzofuran-2,6-dicarboxamide]",–,–,–,–,pest or weed control at 500 g/ha [1]: 100%
3.04,"CC(F)(F)C(NC(=O)/C=C/c1ccc(C(=O)NC2CC2)c(Cl)c1)c1cccc(C(F)(F)F)c1 (stereo not drawn) [Id-1, 2-Chloro-N-cyclopropyl-4-[(1E)-3-({2,2-difluoro-1-[3-(trifluoromethyl)phenyl]propyl}amino)-3-oxoprop-1-en-1-yl]benzamide]",–,–,–,–,pest or weed control at 500 g/ha [1]: 100%
